The assay concerns Human immunodeficiency virus 1. Kind of assay: Cytopathogenic effect was evaluated against Human immunovirus-1 (HIV-1). It is filed as functional. (In general: Damage to the host cells serves as the signal in cytopathic effect assays.)

Results on two compounds are retold here after ChEMBL document CHEMBL1125738, “A ring-enlarged oxetanocin A analogue as an inhibitor of HIV infectivity” (1991).

SMILES strings stand for the structures.

On to `Nc1ncnc2c1ncn2[C@@H]1O[C@H](CO)[C@H]1CO`, for which the Protective dose is 100 µM.

Turning to `Nc1ncnc2c1ncn2[C@H]1C[C@H](CO)[C@@H](CO)O1`, the Protective dose worked out at 10 µM.
